Test results: patent US10106515B2, “1-(cyclopent-2-en-1-yl)-3-(2-hydroxy-3-(arylsulfonyl)phenyl)urea derivatives as CXCR2 inhibitors” (GLAXOSMITHKLINE INTELLECTUAL PROPERTY DEVELOPMENT LIMITED, priority 2014, dated 2018)

Biological target: T1, recombinant human CXCR2 (Homo sapiens, UniProt P25025)
T1 construct: TEV protease site; Gal4-VP16 transcription factor
T1 sequence (P25025 1-360): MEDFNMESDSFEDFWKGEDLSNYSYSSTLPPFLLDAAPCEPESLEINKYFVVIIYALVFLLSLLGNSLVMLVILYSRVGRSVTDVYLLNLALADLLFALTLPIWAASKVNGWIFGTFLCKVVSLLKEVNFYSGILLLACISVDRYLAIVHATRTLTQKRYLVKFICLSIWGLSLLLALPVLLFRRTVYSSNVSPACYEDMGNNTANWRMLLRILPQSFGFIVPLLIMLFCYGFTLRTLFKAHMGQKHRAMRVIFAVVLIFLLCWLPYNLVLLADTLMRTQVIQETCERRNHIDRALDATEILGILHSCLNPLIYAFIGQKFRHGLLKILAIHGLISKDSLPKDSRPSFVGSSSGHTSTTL
Experiment: CXCR2 Tango assay
Assay type: cell-based
Conditions: mean pIC50 of multiple test results; stimulated with 80 nM hCXCL1; reporter gene blue/green emission ratio; read-out: pIC50 (CXCR2 Tango assay) (converted)
How it was run: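 A stable cell line carries human CXCR2 fused to a TEV site and Gal4-VP16, with protease-tagged arrestin. Cells (~10,000/well) were stimulated overnight at 37 °C with 80 nM hCXCL1 and a 10-point compound dilution. CCF4-AM beta-lactamase FRET (460/530 nm ratio) was read, normalized to hCXCL1 and DMSO, and mean pIC50 reported.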

`CC1=CCC[C@H]1NC(=O)Nc1ccc(Cl)c(S(=O)(=O)[C@@]2(C)CCOC2)c1O` [Compound 195, 1-(4-chloro-2-hydroxy-3-(((S)-3-methyltetrahydrofuran-3-yl)sulfonyl)phenyl)-3-((R)-2-methylcyclopent-2-en-1-yl)urea] was tested. Which IC50 did it give?
The IC50 was at most 0.01 µM.
